Experimental data taken from patent US7074789B2, “Kinase inhibitors” (Amgen Inc., priority 1999, dated 2006).
Several values for one entry are separate records, joined by “and”; a condition that tells them apart may be missing. Identical values can stand only once. Like-named read-outs stand apart in the source and are kept apart here.

Tests used:
Format in all cases: biochemical
[1] = target: T1, Lck (Homo sapiens, UniProt P06239); assay: Kinase inhibition assay (33P transfer), Lck; details: read-out: Lck-1
T1 construct: Kinases are expressed as either kinase domains or full length constructs; made in house
Procedure, shortened: (§1)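 Each kinase, expressed as a GST- or polyHis-tagged domain or full-length protein, phosphorylated plate-attached poly(Glu,Tyr) 4:1 or poly(Arg,Ser) 3:1 using 33P-ATP. Bound radioactivity was measured by scintillation after a 0.5% phosphoric acid wash.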

[2] = target: T2, Lyn (Homo sapiens, UniProt P07948); assay: Kinase inhibition assay (33P transfer), Lyn; details: Table 6, Lyn-1 kinase inhibition class
T2 construct: Kinases are expressed as either kinase domains or full length constructs; made in house
T2 sequence (P07948 whole entry, species assumed, the tested form may be a part): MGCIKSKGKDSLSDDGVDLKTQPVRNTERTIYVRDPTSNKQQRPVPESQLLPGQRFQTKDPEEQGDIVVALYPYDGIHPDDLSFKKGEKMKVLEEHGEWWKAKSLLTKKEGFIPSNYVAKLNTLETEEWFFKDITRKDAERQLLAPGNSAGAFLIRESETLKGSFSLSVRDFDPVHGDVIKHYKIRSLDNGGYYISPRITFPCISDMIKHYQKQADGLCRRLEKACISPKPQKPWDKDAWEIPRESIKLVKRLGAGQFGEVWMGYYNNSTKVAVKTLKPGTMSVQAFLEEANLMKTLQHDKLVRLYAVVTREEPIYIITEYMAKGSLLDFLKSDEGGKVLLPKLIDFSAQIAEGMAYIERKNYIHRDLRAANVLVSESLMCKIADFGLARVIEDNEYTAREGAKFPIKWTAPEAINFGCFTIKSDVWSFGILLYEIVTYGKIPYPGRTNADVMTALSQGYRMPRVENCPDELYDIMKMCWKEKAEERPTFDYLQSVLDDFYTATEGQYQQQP
Procedure, shortened: (§2)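 Read-out: scintillation counts of 33P moved from ATP onto synthetic peptide polymer coated on the well surface, after washing with 0.5% phosphoric acid. Enzymes were tagged (GST or polyHistidine) and came from bacterial or insect-cell expression. IC50 marks 50% loss of incorporated label.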

[3] = target: T3, Src (Homo sapiens, UniProt P12931); assay: Kinase inhibition assay (33P transfer), Src; details: Table 6, Src-1 kinase inhibition class
T3 construct: Kinases are expressed as either kinase domains or full length constructs; made in house
Procedure, shortened: as §2

[4] = target: T4, Fyn (Homo sapiens, UniProt P06241); assay: Kinase inhibition assay (33P transfer), Fyn; details: read-out: Fyn-1
T4 construct: Kinases are expressed as either kinase domains or full length constructs; made in house
T4 sequence (P06241 whole entry, species assumed, the tested form may be a part): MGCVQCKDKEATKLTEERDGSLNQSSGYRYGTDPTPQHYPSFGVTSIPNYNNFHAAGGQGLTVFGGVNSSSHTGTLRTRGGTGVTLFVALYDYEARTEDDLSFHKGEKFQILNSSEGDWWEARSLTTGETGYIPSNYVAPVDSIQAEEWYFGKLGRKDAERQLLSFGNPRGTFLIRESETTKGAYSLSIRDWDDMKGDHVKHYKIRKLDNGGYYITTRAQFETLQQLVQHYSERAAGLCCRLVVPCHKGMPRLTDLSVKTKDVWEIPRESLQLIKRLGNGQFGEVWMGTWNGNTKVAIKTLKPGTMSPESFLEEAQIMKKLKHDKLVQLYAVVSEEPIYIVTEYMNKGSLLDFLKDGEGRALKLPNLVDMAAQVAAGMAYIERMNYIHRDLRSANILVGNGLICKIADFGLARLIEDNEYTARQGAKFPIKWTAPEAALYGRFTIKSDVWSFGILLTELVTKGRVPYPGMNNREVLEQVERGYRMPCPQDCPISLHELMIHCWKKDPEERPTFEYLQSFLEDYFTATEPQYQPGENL
Procedure, shortened: as §2

[5] = target: T5, Zap-70 (Homo sapiens, UniProt P43403); assay: Kinase inhibition assay (33P transfer), Zap-70; details: read-out: Zap-1
T5 construct: Kinases are expressed as either kinase domains or full length constructs; made in house
T5 sequence (P43403 1-619): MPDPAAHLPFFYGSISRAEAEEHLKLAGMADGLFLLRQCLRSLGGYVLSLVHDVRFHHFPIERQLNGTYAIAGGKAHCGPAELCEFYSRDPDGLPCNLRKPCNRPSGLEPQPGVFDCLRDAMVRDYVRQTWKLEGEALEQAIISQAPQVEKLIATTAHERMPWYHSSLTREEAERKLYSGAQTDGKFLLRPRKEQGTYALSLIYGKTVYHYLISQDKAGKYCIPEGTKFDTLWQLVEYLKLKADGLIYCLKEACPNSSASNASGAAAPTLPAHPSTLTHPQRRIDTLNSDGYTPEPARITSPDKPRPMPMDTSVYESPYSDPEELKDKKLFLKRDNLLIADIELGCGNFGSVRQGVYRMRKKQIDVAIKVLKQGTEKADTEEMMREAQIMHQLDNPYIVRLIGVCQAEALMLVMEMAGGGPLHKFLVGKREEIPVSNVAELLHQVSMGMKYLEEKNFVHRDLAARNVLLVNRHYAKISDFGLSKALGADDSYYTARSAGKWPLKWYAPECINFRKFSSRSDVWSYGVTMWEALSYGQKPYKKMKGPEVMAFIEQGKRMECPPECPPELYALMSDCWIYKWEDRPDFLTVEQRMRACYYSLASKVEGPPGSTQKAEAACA
Procedure, shortened: as §1

[6] = target: T6, Itk (Homo sapiens, UniProt Q08881); assay: Kinase inhibition assay (33P transfer), Itk; details: read-out: Itk-1
T6 construct: Kinases are expressed as either kinase domains or full length constructs; made in house
T6 sequence (Q08881 1-620): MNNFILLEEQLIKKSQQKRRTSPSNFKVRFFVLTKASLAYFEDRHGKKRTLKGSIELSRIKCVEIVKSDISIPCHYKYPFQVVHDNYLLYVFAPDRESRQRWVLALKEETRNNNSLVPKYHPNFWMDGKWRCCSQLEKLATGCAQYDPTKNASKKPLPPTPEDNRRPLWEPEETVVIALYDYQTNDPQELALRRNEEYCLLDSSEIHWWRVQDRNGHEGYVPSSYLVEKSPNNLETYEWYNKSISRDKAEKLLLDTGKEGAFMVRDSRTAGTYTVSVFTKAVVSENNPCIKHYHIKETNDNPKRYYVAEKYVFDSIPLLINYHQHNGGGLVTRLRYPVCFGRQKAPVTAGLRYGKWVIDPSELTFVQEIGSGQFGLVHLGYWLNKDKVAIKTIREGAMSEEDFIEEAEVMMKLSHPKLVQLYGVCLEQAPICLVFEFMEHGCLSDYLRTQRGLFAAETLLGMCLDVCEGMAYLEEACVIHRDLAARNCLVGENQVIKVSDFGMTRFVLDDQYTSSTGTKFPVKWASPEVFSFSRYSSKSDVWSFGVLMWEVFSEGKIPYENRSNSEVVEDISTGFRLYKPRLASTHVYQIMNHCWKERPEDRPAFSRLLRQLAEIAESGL
Procedure, shortened: as §2

[7] = target: T7, EGFR (Homo sapiens, UniProt P00533); assay: Kinase inhibition assay (33P transfer), EGFR; details: Table 2, kinase inhibition class; read-out: EGFR-1
T7 construct: Kinases are expressed as either kinase domains or full length constructs; made in house
Procedure, shortened: as §2

[8] = target: T8, ErbB2 (Homo sapiens, UniProt P04626); assay: Kinase inhibition assay (33P transfer), ErbB2; details: read-out: ErbB2-2
T8 construct: Kinases are expressed as either kinase domains or full length constructs; made in house
Procedure, shortened: as §2

[9] = target: T9, Kdr (Homo sapiens, UniProt P35968); assay: Kinase inhibition assay (33P transfer), Kdr; details: read-out: KDR-1
T9 construct: Kinases are expressed as either kinase domains or full length constructs; made in house
Procedure, shortened: as §1

[10] = target: T10, Flt-1 (Homo sapiens, UniProt P17948); assay: Kinase inhibition assay (33P transfer), Flt-1
T10 construct: Kinases are expressed as either kinase domains or full length constructs; made in house
Procedure, shortened: as §2

[11] = target: T11, c-Met (Homo sapiens, UniProt P08581); assay: Kinase inhibition assay (33P transfer), c-Met; details: Table 2, kinase inhibition class; read-out: Met-1
T11 construct: Kinases are expressed as either kinase domains or full length constructs; made in house
Procedure, shortened: as §2

[12] = target: T12, AKT (Homo sapiens, UniProt Q9Y243); assay: Kinase inhibition assay (33P transfer), AKT; details: Table 2, kinase inhibition class; read-out: AKT3-1
T12 construct: Kinases are expressed as either kinase domains or full length constructs; made in house
T12 sequence (Q9Y243 whole entry, the tested form may be a part): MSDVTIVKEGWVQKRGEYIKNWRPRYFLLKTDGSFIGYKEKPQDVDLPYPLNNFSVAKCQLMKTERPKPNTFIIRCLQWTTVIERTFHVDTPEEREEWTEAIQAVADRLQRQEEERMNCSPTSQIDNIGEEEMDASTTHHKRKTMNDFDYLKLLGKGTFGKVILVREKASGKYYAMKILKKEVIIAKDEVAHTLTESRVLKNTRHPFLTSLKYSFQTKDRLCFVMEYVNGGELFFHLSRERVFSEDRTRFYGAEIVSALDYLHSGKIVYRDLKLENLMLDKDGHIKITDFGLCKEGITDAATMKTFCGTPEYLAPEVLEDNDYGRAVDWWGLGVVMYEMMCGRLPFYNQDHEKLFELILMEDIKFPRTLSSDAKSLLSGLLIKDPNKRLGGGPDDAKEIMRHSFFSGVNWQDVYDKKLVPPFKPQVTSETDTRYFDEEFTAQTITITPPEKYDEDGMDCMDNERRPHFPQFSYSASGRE
Procedure, shortened: as §1

[13] = target: T13, IGFR-1 (Homo sapiens, UniProt P08069); assay: Kinase inhibition assay, IGFR-1 (Table 2); details: Table 2, kinase inhibition class
T13 construct: Kinases are expressed as either kinase domains or full length constructs; made in house

[14] = target: T14, PDGFRB (Homo sapiens, UniProt P09619); assay: Kinase inhibition assay (33P transfer), PDGFRB; details: read-out: PDGFRB-1
T14 construct: Kinases are expressed as either kinase domains or full length constructs; made in house
T14 sequence (P09619 33-1106, species assumed): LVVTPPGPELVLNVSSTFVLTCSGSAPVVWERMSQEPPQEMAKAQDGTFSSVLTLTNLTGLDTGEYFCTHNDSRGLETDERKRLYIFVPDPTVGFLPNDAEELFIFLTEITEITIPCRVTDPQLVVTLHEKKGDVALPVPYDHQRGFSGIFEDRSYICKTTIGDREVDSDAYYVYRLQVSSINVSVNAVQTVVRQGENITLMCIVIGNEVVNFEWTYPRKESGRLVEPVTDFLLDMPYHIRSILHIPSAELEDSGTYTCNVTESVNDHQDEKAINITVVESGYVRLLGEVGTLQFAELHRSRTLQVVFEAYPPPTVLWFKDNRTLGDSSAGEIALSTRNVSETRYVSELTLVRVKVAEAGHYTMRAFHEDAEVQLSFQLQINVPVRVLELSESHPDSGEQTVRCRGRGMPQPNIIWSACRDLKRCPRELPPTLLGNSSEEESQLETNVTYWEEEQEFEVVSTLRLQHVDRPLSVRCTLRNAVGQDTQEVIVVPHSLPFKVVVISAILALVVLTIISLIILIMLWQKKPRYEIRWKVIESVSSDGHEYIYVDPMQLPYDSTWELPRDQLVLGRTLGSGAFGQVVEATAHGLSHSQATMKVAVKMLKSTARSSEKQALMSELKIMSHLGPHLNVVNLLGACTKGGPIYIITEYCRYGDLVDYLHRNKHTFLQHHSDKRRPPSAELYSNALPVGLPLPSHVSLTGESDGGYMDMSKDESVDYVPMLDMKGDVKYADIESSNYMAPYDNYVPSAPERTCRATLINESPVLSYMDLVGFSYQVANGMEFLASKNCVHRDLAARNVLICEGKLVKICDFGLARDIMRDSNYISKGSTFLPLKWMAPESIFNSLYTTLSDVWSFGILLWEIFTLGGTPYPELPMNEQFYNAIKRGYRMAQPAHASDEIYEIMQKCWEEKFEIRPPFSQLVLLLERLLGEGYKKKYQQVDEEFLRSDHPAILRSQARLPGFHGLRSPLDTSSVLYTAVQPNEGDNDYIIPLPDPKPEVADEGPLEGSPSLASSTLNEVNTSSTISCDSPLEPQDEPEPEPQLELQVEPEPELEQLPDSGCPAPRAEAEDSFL

[15] = target: T15, Hck-1 (Homo sapiens, UniProt P08631); assay: Kinase inhibition assay (33P transfer), Hck; details: Table 6, Hck-1 kinase inhibition class
T15 construct: Kinases are expressed as either kinase domains or full length constructs; made in house
T15 sequence (P08631 whole entry, the tested form may be a part): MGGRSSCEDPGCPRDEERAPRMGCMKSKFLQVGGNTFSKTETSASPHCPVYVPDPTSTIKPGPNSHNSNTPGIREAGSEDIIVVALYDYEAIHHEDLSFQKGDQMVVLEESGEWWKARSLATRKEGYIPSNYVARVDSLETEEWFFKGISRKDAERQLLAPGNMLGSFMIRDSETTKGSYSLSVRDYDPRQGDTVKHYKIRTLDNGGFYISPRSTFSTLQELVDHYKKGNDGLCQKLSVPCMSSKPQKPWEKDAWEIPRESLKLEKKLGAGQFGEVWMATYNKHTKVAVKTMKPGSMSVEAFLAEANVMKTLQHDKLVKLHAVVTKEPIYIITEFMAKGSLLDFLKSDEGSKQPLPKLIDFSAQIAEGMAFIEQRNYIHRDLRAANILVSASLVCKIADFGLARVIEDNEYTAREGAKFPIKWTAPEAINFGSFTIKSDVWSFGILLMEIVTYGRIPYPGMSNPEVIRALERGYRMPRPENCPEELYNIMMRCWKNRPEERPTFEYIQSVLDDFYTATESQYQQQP

[16] = target: T16, ErbB4 (Homo sapiens, UniProt Q15303); assay: Kinase inhibition assay (33P transfer), ErbB4; details: read-out: ErbB4-1
T16 construct: Kinases are expressed as either kinase domains or full length constructs; made in house

[17] = target: T17, Ret-1 (Homo sapiens, UniProt P07949); assay: Kinase inhibition assay (33P transfer), Ret; details: Table 6, Ret-1 kinase inhibition class
T17 construct: Kinases are expressed as either kinase domains or full length constructs; made in house
T17 sequence (P07949 29-1114): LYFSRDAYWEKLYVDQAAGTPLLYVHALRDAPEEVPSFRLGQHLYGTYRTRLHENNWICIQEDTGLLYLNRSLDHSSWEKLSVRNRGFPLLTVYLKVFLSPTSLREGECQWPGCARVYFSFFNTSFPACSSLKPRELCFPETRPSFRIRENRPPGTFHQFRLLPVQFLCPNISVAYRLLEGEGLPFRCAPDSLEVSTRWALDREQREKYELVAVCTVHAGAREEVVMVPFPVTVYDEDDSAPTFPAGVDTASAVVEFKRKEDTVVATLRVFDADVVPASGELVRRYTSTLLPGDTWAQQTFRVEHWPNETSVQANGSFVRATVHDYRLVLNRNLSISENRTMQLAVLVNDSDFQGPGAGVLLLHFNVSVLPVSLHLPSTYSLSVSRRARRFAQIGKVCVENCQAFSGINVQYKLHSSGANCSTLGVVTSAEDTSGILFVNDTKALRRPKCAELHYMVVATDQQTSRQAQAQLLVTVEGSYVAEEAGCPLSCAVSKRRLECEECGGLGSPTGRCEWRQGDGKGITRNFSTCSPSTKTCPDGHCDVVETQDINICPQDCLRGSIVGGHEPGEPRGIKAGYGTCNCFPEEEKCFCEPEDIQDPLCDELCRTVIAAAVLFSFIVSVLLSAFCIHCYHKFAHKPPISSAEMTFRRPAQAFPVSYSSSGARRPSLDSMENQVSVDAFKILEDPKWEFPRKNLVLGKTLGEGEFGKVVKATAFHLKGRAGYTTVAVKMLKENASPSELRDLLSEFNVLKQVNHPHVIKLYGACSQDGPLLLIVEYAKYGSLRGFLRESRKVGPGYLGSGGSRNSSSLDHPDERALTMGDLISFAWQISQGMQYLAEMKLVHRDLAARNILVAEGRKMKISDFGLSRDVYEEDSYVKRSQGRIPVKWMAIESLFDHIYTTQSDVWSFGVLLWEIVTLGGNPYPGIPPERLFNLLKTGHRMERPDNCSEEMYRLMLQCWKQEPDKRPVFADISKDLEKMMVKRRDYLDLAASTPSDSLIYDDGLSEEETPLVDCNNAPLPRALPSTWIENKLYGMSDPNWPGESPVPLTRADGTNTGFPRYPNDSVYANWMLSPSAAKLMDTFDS

[18] = target: T18, FGFR1 (Homo sapiens, UniProt P11362); assay: Kinase inhibition assay (33P transfer), FGFR1; details: read-out: FGFR1-1
T18 construct: Kinases are expressed as either kinase domains or full length constructs; made in house
T18 sequence (P11362 22-822, species assumed): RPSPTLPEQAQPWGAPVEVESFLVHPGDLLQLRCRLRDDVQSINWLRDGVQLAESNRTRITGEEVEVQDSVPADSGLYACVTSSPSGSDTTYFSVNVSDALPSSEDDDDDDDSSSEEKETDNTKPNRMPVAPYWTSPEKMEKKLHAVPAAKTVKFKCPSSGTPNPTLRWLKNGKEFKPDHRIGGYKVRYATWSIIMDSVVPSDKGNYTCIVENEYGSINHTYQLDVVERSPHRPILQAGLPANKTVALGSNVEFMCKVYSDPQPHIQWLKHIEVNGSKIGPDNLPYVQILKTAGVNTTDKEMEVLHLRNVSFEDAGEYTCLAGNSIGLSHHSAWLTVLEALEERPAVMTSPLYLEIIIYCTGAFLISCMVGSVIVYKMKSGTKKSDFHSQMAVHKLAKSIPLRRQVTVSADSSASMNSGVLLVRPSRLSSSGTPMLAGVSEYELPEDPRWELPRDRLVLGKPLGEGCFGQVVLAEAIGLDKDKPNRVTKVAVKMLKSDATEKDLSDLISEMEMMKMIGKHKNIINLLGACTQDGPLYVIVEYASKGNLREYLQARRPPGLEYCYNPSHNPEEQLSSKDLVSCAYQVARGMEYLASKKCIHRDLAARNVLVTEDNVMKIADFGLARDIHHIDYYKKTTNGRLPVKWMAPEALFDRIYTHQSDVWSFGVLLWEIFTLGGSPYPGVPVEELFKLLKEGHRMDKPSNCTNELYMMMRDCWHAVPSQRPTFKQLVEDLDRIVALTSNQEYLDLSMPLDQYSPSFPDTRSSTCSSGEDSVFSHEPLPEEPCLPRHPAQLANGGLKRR

[19] = target: T14, PDGFRB; assay: Kinase inhibition assay (33P transfer), PDGFRB; details: read-out: PDGFRB-1; remark: listed apart in the source

| SMILES | IC50 [1] [µM] | IC50 [2] [µM] | IC50 [3] [µM] | IC50 [4] [µM] | IC50 [5] [µM] | IC50 [6] [µM] | IC50 [7] | IC50 [8] | IC50 [9] | IC50 [10] [µM] | IC50 [11] | IC50 [12] [µM] | IC50 [13] | IC50 [14] [µM] | IC50 [15] [µM] | IC50 [16] [µM] | IC50 [17] [µM] | IC50 [18] [µM] | IC50 [19] |
| --- | --- | --- | --- | --- | --- | --- | --- | --- | --- | --- | --- | --- | --- | --- | --- | --- | --- | --- | --- |
| CCN(CC)CCOc1cc(Nc2ncnc(Nc3cc(OC)c(OC)c(OC)c3)n2)ccc1OC [Compound 600] | < 0.802 | < 0.802 | 0.802 to 4.81 | 0.802 to 4.81 | > 9.03 | > 9.03 | > 9.03 µM | 4.81 to 7.02 µM | 0.802 to 4.81 µM | > 9.03 | > 9.03 µM | > 9.03 | > 9.03 µM | 0.802 to 4.81 | > 9.03 | 0.802 to 4.81 | 0.802 to 4.81 | > 9.03 | – |
| CCC(Nc1nc2ccccc2n1-c1ncnc(Nc2cc(OC)c(OC)c(OC)c2)n1)c1ccccc1 (stereo not shown) [Compound 592] | 0.782 to 4.69 | 0.782 to 4.69 | 0.782 to 4.69 | 0.782 to 4.69 | > 8.8 | > 8.8 | 0.782 to 4.69 µM | 0.782 to 4.69 µM | < 0.782 µM | 0.782 to 4.69 | > 8.8 µM | > 8.8 | > 8.8 µM | < 0.782 | > 8.8 | 4.69 to 6.84 | < 0.782 | < 0.782 | – |
| CCN(CC)CCOc1ccc(Nc2ncnc(Nc3cc(OC)c(OC)c(OC)c3)n2)cc1OC [Compound 602] | 0.802 to 4.81 | 0.802 to 4.81 | 0.802 to 4.81 | 0.802 to 4.81 | > 9.03 | > 9.03 | 0.802 to 4.81 µM | 0.802 to 4.81 µM | 7.02 to 9.03 µM | > 9.03 | > 9.03 µM | > 9.03 | > 9.03 µM | 0.802 to 4.81 | > 9.03 | 0.802 to 4.81 | > 9.03 | > 9.03 | – |
| COc1cc(Nc2ncnc(Nc3ccc4c(cnn4Cc4ccccc4)c3)n2)cc(OC)c1OCCN1CCOCC1 [Compound 559] | < 0.687 | < 0.687 | < 0.687 | < 0.687 | > 7.72 | 4.12 to 6.01 | < 0.687 µM | < 0.687 µM | 0.687 to 4.12 µM | > 7.72 | > 7.72 µM | > 7.72 | 0.687 to 4.12 µM | < 0.687 | 4.12 to 6.01 | < 0.687 | < 0.687 | 0.687 to 4.12 | – |
| COc1cc(Nc2ncnc(-n3c(NC4CCCc5ccccc54)nc4ccccc43)n2)cc(OC)c1OC (stereo not shown) [Compound 587] | 0.764 to 4.58 | 0.764 to 4.58 | > 8.59 | > 8.59 | > 8.59 | > 8.59 | 4.58 to 6.68 µM and 6.68 to 8.59 µM | 0.764 to 4.58 µM and 4.58 to 6.68 µM | < 0.764 µM and 0.764 to 4.58 µM | 0.764 to 4.58 | 6.68 to 8.59 µM and > 8.59 µM | > 8.59 | 6.68 to 8.59 µM and > 8.59 µM | – | – | 0.764 to 4.58 | < 0.764 | < 0.764 | 0.764 to 4.58 µM and > 8.59 µM |
| CCOC(=O)C(Nc1nc2ccccc2n1-c1ncnc(Nc2cc(OC)c(OC)c(OC)c2)n1)c1ccccc1 (stereo not shown) [Compound 585] | 4.32 to 6.3 | > 8.1 | > 8.1 | > 8.1 | > 8.1 | > 8.1 | > 8.1 µM | 4.32 to 6.3 µM | < 0.72 µM | 0.72 to 4.32 | 6.3 to 8.1 µM | > 8.1 | > 8.1 µM | – | – | > 8.1 | < 0.72 | < 0.72 | 0.72 to 4.32 µM |
